Source: patent US12668770B2 (priority 2017, dated 2026)

Assays:
[1] = system: WT strain of Nannochloropsis oculata NIES-2145; assay type: cell-based; parameters: key to viability, WT strain: −: Not grown; +: Suppressed in growth, (somewhat) dye fading; ++: Suppressed in growth; +++: Fully grown
[2] = system: ΔNR strain (NR gene-disrupted strain); assay type: cell-based, Nannochloropsis oculata; parameters: key to viability, ΔNR strain: −: Not grown; +: Suppressed in growth, (somewhat) dye fading; ++: Suppressed in growth; +++: Fully grown
[3] = system: ΔNRT strain (NRT gene-disrupted strain); assay type: cell-based, Nannochloropsis oculata; parameters: key to viability, ΔNRT strain: −: Not grown; +: Suppressed in growth, (somewhat) dye fading; ++: Suppressed in growth; +++: Fully grown
[4] = system: ΔNRTΔNR strain (NRT-NR gene-disrupted strain); assay type: cell-based, Nannochloropsis oculata; parameters: key to viability, ΔNRTΔNR strain: −: Not grown; +: Suppressed in growth, (somewhat) dye fading; ++: Suppressed in growth; +++: Fully grown

[K+].[O-][Cl+2]([O-])[O-] [KClO3, potassium chlorate]
growth of WT strain on chloric acid-containing agar medium (FIG. 7) [1]: killed | viability, WT strain [1]: − | growth of ΔNR strain on chloric acid-containing agar medium (FIG. 7) [2]: growth was unable to be confirmed | viability, ΔNR strain [2]: − | growth of ΔNRT strain (Table 2) [3]: growth was confirmed | growth of ΔNRT strain on chloric acid-containing agar medium (FIG. 7) [3]: growth was also confirmed | viability, ΔNRT strain [3]: − and ++ | growth of ΔNRTΔNR strain (Table 2) [4]: growth was able to be achieved | growth of ΔNRTΔNR strain on chloric acid-containing agar medium (FIG. 7) [4]: more favorable growth was observed | viability, ΔNRTΔNR strain [4]: + and +++ and ++
